Experimental data published in PMC7708037, “Targeting OGG1 arrests cancer cell proliferation by inducing replication stress” (Nucleic Acids Research, 2020).

Columns and labels:
[1] = tested on: genomic 8-oxodG in A3 cells; assay: 8-oxodG detection in genomic DNA by LC-MS/MS; assay type: cell-based, human; details: 10 μM, up to five days
Procedure: 8-oxodG detection in genomic DNA through LC–MS/MS ([39]) and single-cell electrophoresis ([40]) were performed as described.
Figure 5. Effect of TH5487 on DNA lesions, DNA damage markers and DNA replication. (A) 8-oxodG accumulation in A3 cells. A3 cells were treated with 20 mM KBrO3 for 1 h or with 10 μM TH5487 for the indicated times, and the amount of genomic 8-oxodG was quantified with LC-MS/MS. Data are average ±SD of five replicates from two independent experiments. (B) Comet assay. A3 cells were treated with 10 μM TH5487 for 72 h and strand-breaks and OGG1 substrate lesions were analyzed with the OGG1-modified Comet assay. Representative images of cells are shown. (C) Violin blot of Comet tail moment. Cells were treated as in B, and the tail moment of the cells were analyzed using blinded automatic analysis (n = 200 per condition from two independent experiments). The full line indicates median, and the dotted lines quartiles. (D) Violin blot of phosphorylated γH2AX intensity. A3 cells were treated with 0.1% DMSO or 10 μM TH5487 for the indicated times and stained for phosphorylated γH2AX. […] At least 33 000 nuclei per group were quantified from three independent experiments. […] At least 300 forks were scored per condition. Statistical significance was determined using unpaired, two-sided t-tests (**P < 0.01, ***P < 0.001 and ****P < 0.0001; ns, non-significant).

MCM4 mRNA in A3 cells = assay: Real time PCR of MCM4 mRNA; assay type: cell-based, human; details: 10 μM, 72 h
Procedure: RNA was extracted from cultured cells using TRIzol® Reagent (Thermo Fisher Scientific). RNA quantity and quality were assessed by NanoDrop® (ND-1000 V3.7.1; Thermo Fisher Scientific). The High-Capacity cDNA Reverse Transcription Kit (Applied Biosystems) was utilized for cDNA synthesis following the manufacturer's instructions. Two microliters of cDNA at a final concentration of 10 ng/μl were mixed with GoTaq® qPCR MasterMix 1× (Promega) and 1 μM cDNA primers of each pair of primers (F/R) in a final volume reaction of 10 μl. Primers used are listed in Supplementary Table S2. The amplification conditions consisted of an initial step at 95°C for 10 min, followed by 40 cycles of 10 s at 95°C and 1 min at 60°C. Each qPCR was performed in duplicates or triplicates including no-template controls in an Abi QuantStudio 1 Flex Real-Time PCR System (Applied Biosystems). Relative transcript levels for each replication gene, was calculated using the 2ΔΔCt method for qPCR analysis after normalization with the housekeeping gene beta-actin (B-actin-F 5′-CCTGGCACCCAGCACAAT- 3′; B-actin-R 5′ - GGGCCGGACTCGTCATACT-3′).
Figure 6. […] Only genes with a mean normalized count >5 were analyzed. […] Statistical significance was determined using a two-sided unpaired t-test (ns, non-significant, *P < 0.05, **P < 0.01, ***P < 0.001 and ****P < 0.0001).

O=C(Nc1ccc(I)cc1)N1CCC(n2c(=O)[nH]c3c(Br)cccc32)CC1 [TH5487]
Genomic 8-oxodG levels [1]: did not rise above assay background levels
MCM4 mRNA levels (MCM4 mRNA in A3 cells): slight but significant downregulation
